Patent publication US9637483B2, “Heterocyclic compound” (TAKEDA PHARMACEUTICAL COMPANY LIMITED, priority 2013, dated 2017)

How the values were obtained:
Assay type in all cases: biochemical
JAK1 = target: T1, JAK1 (Homo sapiens, UniProt P23458); assay: JAK1 enzyme inhibition test (LANCE method); details: 1 μM test compound; read-out: JAK1 enzyme inhibitory activity (%, 1 μM)
T1 construct: purchased Invitrogen
How it was run: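 TR-FRET (LANCE) with ULight-JAK1 peptide (300 nM working solution) and ATP (150 μM working solution) in HEPES pH 7.5, MgCl2, EGTA, DTT buffer; 1 h at room temperature. EDTA stop plus Eu-anti-phosphotyrosine antibody, 665 nm read after 1 h. Inhibition relative to enzyme-free wells as 100%.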

JAK3 = target: T2, JAK3 (Homo sapiens, UniProt P52333); assay: JAK3 enzyme inhibition test (LANCE method); details: 1 μM test compound; read-out: JAK3 enzyme inhibitory activity (%, 1 μM)
T2 construct: purchased Invitrogen
T2 sequence (P52333 1-1124): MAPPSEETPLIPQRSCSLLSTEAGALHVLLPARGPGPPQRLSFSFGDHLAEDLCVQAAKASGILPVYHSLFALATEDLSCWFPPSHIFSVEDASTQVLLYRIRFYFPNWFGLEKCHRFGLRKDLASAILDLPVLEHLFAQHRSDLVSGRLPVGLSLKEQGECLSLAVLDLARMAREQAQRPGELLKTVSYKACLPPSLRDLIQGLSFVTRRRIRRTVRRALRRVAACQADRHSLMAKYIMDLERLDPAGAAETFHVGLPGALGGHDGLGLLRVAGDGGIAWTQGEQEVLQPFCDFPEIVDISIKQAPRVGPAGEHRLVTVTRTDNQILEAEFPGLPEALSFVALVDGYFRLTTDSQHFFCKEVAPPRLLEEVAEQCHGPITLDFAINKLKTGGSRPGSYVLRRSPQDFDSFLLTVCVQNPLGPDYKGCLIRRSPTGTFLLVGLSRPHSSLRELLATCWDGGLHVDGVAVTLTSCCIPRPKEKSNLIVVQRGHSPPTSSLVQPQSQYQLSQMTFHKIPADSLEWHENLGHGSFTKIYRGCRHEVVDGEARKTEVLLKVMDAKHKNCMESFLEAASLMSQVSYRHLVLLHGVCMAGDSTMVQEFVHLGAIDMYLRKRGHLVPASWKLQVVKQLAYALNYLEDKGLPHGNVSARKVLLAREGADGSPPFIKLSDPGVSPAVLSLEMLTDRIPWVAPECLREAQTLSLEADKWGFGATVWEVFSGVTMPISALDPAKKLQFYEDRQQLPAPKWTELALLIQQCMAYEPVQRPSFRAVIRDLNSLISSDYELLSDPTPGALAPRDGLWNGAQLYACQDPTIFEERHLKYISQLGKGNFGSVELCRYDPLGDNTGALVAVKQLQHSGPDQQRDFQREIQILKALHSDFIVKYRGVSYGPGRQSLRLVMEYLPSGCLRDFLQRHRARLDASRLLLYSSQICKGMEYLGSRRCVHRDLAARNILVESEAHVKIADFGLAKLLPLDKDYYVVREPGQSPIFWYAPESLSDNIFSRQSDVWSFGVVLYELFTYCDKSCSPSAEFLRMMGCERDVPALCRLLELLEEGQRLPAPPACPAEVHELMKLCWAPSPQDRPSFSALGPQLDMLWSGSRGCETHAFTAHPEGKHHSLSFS
How it was run: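 Recombinant JAK3 (12 ng/mL solution) with ULight-JAK1 peptide (300 nM solution) and ATP (15 μM solution) in HEPES pH 7.5 buffer, 1 h at room temperature. EDTA stop with Eu-anti-phosphotyrosine antibody; TR-FRET at 665 nm. Inhibition relative to enzyme-free wells as 100%.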

JAK2 = target: T3, JAK2 (Homo sapiens, UniProt O60674); assay: JAK2 enzyme inhibition test (LANCE method); details: 1 μM test compound; read-out: JAK2 enzyme inhibitory activity (%, 1 μM)
T3 construct: purchased Invitrogen
How it was run: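 Recombinant JAK2 (6 ng/mL solution) phosphorylated ULight-JAK1 peptide (300 nM solution) with ATP (45 μM solution) in pH 7.5 HEPES/MgCl2/DTT buffer for 1 hr at room temperature. After EDTA stop and europium anti-phosphotyrosine antibody for 1 hr, TR-FRET read at 665 nm; inhibition relative to enzyme-free wells as 100%.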

TYK2 = target: T4, TYK2 (Homo sapiens, UniProt P29597); assay: TYK2 enzyme inhibition test (LANCE method); details: 1 μM test compound; read-out: TYK2 enzyme inhibitory activity (%, 1 μM)
T4 construct: purchased Invitrogen
How it was run: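 Recombinant TYK2 (375 ng/mL working solution) with ULight-JAK1 peptide (300 nM working solution) and ATP (30 μM working solution) in HEPES pH 7.5 buffer with MgCl2, EGTA, DTT, Tween20, BSA, reacted 1 h at RT. EDTA-stopped, Eu-anti-phosphotyrosine TR-FRET read at 665 nm; inhibition relative to enzyme-free wells as 100%.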

T1 sequence (P23458 whole entry): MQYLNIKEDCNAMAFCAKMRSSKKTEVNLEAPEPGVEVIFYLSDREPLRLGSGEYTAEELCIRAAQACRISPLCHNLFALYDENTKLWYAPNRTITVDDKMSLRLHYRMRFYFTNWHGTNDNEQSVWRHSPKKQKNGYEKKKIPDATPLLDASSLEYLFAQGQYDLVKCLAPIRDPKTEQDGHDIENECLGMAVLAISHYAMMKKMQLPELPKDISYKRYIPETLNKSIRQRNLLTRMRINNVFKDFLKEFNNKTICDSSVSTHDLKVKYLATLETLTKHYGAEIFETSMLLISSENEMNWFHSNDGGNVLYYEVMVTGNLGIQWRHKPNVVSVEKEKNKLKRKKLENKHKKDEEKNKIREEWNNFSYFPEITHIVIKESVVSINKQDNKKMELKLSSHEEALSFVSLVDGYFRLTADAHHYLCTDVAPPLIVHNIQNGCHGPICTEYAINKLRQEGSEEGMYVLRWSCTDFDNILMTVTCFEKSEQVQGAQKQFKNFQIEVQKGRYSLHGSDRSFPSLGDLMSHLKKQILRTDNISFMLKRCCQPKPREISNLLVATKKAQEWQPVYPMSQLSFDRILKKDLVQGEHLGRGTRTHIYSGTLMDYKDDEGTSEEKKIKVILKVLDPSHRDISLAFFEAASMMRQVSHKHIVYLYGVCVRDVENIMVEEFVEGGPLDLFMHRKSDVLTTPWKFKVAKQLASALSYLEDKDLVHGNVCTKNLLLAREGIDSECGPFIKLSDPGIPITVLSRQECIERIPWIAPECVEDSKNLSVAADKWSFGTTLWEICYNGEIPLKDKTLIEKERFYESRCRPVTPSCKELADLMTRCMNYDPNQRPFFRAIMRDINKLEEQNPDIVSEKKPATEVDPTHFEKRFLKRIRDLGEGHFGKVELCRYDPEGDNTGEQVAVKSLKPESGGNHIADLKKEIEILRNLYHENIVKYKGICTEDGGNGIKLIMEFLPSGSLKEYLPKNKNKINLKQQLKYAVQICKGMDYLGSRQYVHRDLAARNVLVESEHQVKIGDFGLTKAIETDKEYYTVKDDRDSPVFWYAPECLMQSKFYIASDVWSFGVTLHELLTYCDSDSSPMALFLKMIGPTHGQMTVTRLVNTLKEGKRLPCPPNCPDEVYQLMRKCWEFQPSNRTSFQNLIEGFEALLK
T3 sequence (O60674 whole entry): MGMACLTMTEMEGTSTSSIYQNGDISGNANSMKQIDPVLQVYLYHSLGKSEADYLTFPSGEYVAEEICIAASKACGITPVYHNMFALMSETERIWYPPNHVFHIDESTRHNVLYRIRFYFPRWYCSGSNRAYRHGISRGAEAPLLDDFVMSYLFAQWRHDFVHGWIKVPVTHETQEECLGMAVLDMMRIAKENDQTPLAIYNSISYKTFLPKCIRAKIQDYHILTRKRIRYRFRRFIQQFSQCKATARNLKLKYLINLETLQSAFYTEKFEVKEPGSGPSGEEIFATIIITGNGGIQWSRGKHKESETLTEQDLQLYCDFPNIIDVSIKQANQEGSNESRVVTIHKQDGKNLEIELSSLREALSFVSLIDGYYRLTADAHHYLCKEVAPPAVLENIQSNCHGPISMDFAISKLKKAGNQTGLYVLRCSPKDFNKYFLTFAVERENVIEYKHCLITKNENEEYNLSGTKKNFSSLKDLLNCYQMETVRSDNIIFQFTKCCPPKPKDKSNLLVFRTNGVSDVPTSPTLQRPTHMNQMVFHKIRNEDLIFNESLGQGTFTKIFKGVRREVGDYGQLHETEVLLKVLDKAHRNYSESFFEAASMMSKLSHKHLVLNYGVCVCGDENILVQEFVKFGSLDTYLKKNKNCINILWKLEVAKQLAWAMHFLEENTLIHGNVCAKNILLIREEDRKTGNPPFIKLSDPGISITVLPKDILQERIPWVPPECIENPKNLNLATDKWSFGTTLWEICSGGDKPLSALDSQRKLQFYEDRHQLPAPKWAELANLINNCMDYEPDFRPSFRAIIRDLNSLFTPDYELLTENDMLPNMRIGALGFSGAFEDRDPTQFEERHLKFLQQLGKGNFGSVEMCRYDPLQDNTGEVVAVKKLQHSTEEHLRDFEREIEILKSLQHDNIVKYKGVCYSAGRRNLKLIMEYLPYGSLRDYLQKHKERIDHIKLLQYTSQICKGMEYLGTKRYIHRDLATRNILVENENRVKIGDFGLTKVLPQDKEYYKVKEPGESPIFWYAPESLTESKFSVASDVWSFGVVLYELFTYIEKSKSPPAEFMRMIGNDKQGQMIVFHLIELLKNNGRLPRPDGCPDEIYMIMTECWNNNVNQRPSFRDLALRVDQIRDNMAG
T4 sequence (P29597 whole entry): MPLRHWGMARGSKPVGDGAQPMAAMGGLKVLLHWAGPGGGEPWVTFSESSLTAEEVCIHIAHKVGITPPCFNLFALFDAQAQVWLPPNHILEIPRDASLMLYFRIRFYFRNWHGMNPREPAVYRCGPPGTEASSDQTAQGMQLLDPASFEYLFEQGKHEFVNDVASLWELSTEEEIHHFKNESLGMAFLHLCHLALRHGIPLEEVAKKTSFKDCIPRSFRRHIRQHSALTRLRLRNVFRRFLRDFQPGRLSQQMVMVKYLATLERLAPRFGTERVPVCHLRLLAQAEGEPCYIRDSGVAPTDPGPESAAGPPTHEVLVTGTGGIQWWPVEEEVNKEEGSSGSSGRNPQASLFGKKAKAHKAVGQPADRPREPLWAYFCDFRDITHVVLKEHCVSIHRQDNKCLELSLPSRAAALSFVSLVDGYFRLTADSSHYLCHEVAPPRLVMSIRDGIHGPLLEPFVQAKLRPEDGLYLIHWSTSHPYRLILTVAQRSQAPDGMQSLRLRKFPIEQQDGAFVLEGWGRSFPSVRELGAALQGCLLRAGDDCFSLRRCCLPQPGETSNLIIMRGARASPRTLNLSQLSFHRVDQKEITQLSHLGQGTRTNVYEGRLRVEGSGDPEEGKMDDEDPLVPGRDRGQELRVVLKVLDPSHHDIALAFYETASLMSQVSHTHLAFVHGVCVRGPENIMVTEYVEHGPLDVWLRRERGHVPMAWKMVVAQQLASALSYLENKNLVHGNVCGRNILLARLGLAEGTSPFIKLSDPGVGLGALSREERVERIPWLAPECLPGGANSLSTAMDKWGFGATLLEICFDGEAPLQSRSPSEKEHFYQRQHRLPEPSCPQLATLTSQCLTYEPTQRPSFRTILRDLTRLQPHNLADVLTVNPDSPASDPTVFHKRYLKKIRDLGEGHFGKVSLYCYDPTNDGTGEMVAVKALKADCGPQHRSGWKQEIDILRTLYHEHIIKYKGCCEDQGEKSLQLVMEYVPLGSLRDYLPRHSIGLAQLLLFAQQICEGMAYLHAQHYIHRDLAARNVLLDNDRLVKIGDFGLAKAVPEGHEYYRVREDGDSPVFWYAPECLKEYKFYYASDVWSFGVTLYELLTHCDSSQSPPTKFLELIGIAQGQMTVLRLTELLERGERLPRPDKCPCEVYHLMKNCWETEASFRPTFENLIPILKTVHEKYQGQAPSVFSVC

Structure (SMILES): CC(C)[C@H](C)n1cc(-c2cc(N3CCCC3)n(C)n2)c2[nH]nc(N)c2c1=O [Example 27, 3-amino-5-((2S)-3-methylbutan-2-yl)-7-(1-methyl-5-(pyrrolidin-1-yl)-1H-pyrazol-3-yl)-1,5-dihydro-4H-pyrazolo[4,3-c]pyridin-4-one]
- inhibition at 1 µM (JAK1): 98%
- inhibition at 1 µM (JAK3): 100%
- inhibition at 1 µM (JAK2): 98%
- inhibition at 1 µM (TYK2): 100%

Structure (SMILES): CCn1nc(-c2cn([C@@H](C)C(C)C)c(=O)c3c(N)n[nH]c23)cc1N1CCS(=O)(=O)CC1 [Example 28, 3-amino-7-(5-(1,1-dioxidothiomorpholin-4-yl)-1-ethyl-1H-pyrazol-3-yl)-5-((2S)-3-methylbutan-2-yl)-1,5-dihydro-4H-pyrazolo[4,3-c]pyridin-4-one]
- inhibition at 1 µM (JAK1): 78%
- inhibition at 1 µM (JAK3): 95%
- inhibition at 1 µM (JAK2): 90%
- inhibition at 1 µM (TYK2): 98%

Structure (SMILES): CC(C)[C@H](C)n1cc(-c2cc(N3CCS(=O)(=O)CC3)n(CC(F)(F)F)n2)c2[nH]nc(N)c2c1=O [Example 29, 3-amino-7-(5-(1,1-dioxidothiomorpholin-4-yl)-1-(2,2,2-trifluoroethyl)-1H-pyrazol-3-yl)-5-((2S)-3-methylbutan-2-yl)-1,5-dihydro-4H-pyrazolo[4,3-c]pyridin-4-one]
- inhibition at 1 µM (JAK1): 47%
- inhibition at 1 µM (JAK3): 67%
- inhibition at 1 µM (JAK2): 49%
- inhibition at 1 µM (TYK2): 93%

Structure (SMILES): CC(C)[C@H](C)n1cc(-c2cc(N3CCOC(C)(C)C3)n(C)n2)c2[nH]nc(N)c2c1=O [Example 30, 3-amino-7-(5-(2,2-dimethylmorpholin-4-yl)-1-methyl-1H-pyrazol-3-yl)-5-((2S)-3-methylbutan-2-yl)-1,5-dihydro-4H-pyrazolo[4,3-c]pyridin-4-one]
- inhibition at 1 µM (JAK1): 97%
- inhibition at 1 µM (JAK3): 99%
- inhibition at 1 µM (JAK2): 99%
- inhibition at 1 µM (TYK2): 99%

Structure (SMILES): CC1CN(c2cc(-c3cn([C@@H](C)C(C)C)c(=O)c4c(N)n[nH]c34)nn2C)CCO1 (stereo partly drawn) [Example 31, 3-amino-5-((2S)-3-methylbutan-2-yl)-7-(1-methyl-5-(2-methylmorpholin-4-yl)-1H-pyrazol-3-yl)-1,5-dihydro-4H-pyrazolo[4,3-c]pyridin-4-one]
- inhibition at 1 µM (JAK1): 97%
- inhibition at 1 µM (JAK3): 99%
- inhibition at 1 µM (JAK2): 98%
- inhibition at 1 µM (TYK2): 99%

Structure (SMILES): CC(C)[C@H](C)n1cc(-c2cc(N3CCN4CCCC4C3)n(C)n2)c2[nH]nc(N)c2c1=O (stereo partly drawn) [Example 32, 3-amino-7-(5-(hexahydropyrrolo[1,2-a]pyrazin-2 (H)-yl)-1-methyl-1H-pyrazol-3-yl)-5-((2S)-3-methylbutan-2-yl)-1,5-dihydro-4H-pyrazolo[4,3-c]pyridin-4-one]
- inhibition at 1 µM (JAK1): 96%
- inhibition at 1 µM (JAK3): 99%
- inhibition at 1 µM (JAK2): 98%
- inhibition at 1 µM (TYK2): 99%

Structure (SMILES): CC(C)[C@H](C)n1cc(-c2cc(N3CCC(C)(O)C3)n(C)n2)c2[nH]nc(N)c2c1=O (stereo partly drawn) [Example 33, 3-amino-7-(5-(3-hydroxy-3-methylpyrrolidin-1-yl)-1-methyl-1H-pyrazol-3-yl)-5-((2S)-3-methylbutan-2-yl)-1,5-dihydro-4H-pyrazolo[4,3-c]pyridin-4-one]
- inhibition at 1 µM (JAK1): 96%
- inhibition at 1 µM (JAK3): 99%
- inhibition at 1 µM (JAK2): 98%
- inhibition at 1 µM (TYK2): 99%

Structure (SMILES): CC(C)[C@H](C)n1cc(-c2cc(N3CCC4(CC3)COC4)n(C)n2)c2[nH]nc(N)c2c1=O [Example 34, 3-amino-5-((2S)-3-methylbutan-2-yl)-7-(1-methyl-5-(2-oxa-7-azaspiro[3.5]non-7-yl)-1H-pyrazol-3-yl)-1,5-dihydro-4H-pyrazolo[4,3-c]pyridin-4-one]
- inhibition at 1 µM (JAK1): 97%
- inhibition at 1 µM (JAK3): 100%
- inhibition at 1 µM (JAK2): 99%
- inhibition at 1 µM (TYK2): 100%

Structure (SMILES): CC(C)[C@H](C)n1cc(-c2cc(C3(O)CCOCC3)n(C)n2)c2[nH]nc(N)c2c1=O [Example 35, 3-amino-7-(5-(4-hydroxytetrahydro-2H-pyran-4-yl)-1-methyl-1H-pyrazol-3-yl)-5-((2S)-3-methylbutan-2-yl)-1,5-dihydro-4H-pyrazolo[4,3-c]pyridin-4-one]
- inhibition at 1 µM (JAK1): 97%
- inhibition at 1 µM (JAK3): 100%
- inhibition at 1 µM (JAK2): 99%
- inhibition at 1 µM (TYK2): 99%

Structure (SMILES): COCCn1nc(-c2cn([C@@H](C)C(C)C)c(=O)c3c(N)n[nH]c23)cc1C(C)(C)O [Example 36, 3-amino-7-(5-(2-hydroxypropan-2-yl)-1-(2-methoxyethyl)-1H-pyrazol-3-yl)-5-((2S)-3-methylbutan-2-yl)-1,5-dihydro-4H-pyrazolo[4,3-c]pyridin-4-one]
- inhibition at 1 µM (JAK1): 55%
- inhibition at 1 µM (JAK3): 85%
- inhibition at 1 µM (JAK2): 80%
- inhibition at 1 µM (TYK2): 91%

Structure (SMILES): CC(C)[C@H](C)n1cc(-c2cc(C3(O)CCC(F)(F)CC3)n(C)n2)c2[nH]nc(N)c2c1=O [Example 37, 3-amino-7-(5-(4,4-difluoro-1-hydroxycyclohexyl)-1-methyl-1H-pyrazol-3-yl)-5-((2S)-3-methylbutan-2-yl)-1,5-dihydro-4H-pyrazolo[4,3-c]pyridin-4-one]
- inhibition at 1 µM (JAK1): 98%
- inhibition at 1 µM (JAK3): 100%
- inhibition at 1 µM (JAK2): 99%
- inhibition at 1 µM (TYK2): 99%

Structure (SMILES): CC(C)[C@H](C)n1cc(-c2cc(C3(O)CCC3)n(C)n2)c2[nH]nc(N)c2c1=O [Example 38, 3-amino-7-(5-(1-hydroxycyclobutyl)-1-methyl-1H-pyrazol-3-yl)-5-((2S)-3-methylbutan-2-yl)-1,5-dihydro-4H-pyrazolo[4,3-c]pyridin-4-one]
- inhibition at 1 µM (JAK1): 99%
- inhibition at 1 µM (JAK3): 100%
- inhibition at 1 µM (JAK2): 99%
- inhibition at 1 µM (TYK2): 100%

Structure (SMILES): CC(C)[C@H](C)n1cc(-c2cc(C3=CCOCC3)n(C)n2)c2[nH]nc(N)c2c1=O [Example 39, 3-amino-7-(5-(3,6-dihydro-2H-pyran-4-yl)-1-methyl-1H-pyrazol-3-yl)-5-((2S)-3-methylbutan-2-yl)-1,5-dihydro-4H-pyrazolo[4,3-c]pyridin-4-one]
- inhibition at 1 µM (JAK1): 99%
- inhibition at 1 µM (JAK3): 100%
- inhibition at 1 µM (JAK2): 99%
- inhibition at 1 µM (TYK2): 100%

Structure (SMILES): CNC(=O)c1ccc(-c2cc(-c3cn([C@@H](C)C(C)C)c(=O)c4c(N)n[nH]c34)nn2C)cc1 [Example 40, 4-(3-(3-amino-5-((2S)-3-methylbutan-2-yl)-4-oxo-4,5-dihydro-1H-pyrazolo[4,3-c]pyridin-7-yl)-1-methyl-1H-pyrazol-5-yl)-N-methylbenzamide]
- inhibition at 1 µM (JAK1): 99%
- inhibition at 1 µM (JAK3): 99%
- inhibition at 1 µM (JAK2): 98%
- inhibition at 1 µM (TYK2): 100%

Structure (SMILES): CC(C)[C@H](C)n1cc(-c2cc(N3CCOCC3)n(C)n2)c2[nH]nc(N)c2c1=O [Example 41, 3-amino-5-((2S)-3-methylbutan-2-yl)-7-(1-methyl-5-(morpholin-4-yl)-1H-pyrazol-3-yl)-1,5-dihydro-4H-pyrazolo[4,3-c]pyridin-4-one]
- inhibition at 1 µM (JAK1): 97%
- inhibition at 1 µM (JAK3): 100%
- inhibition at 1 µM (JAK2): 99%
- inhibition at 1 µM (TYK2): 101%
